Where “and” joins values, the source holds several entries; their conditions need not be identical. Equal values may be shown once.
System: 817829-284-R-J1-PDC complex spheroid viability
Experiment: Anticancer human tumor 817829-284-R-J1-PDC patient-derived colon adenocarcinoma cell line growth inhibition [POLQ]
Settings: for viability, T/C: stronger effect = lower value; for IC50: curve of compound
Experimental: Multicellular complex tumor spheroid response to Polymerase (POL) inhibitors (novobiocin, ART-558, RP6685) in combination with a variety of drugs and investigational agents in selected tumor cell lines
The POL inhibitors (novobiocin, ART-558, and RP6685) were evaluated both individually and in combination with standard of care and investigational anticancer small molecules within a complex spheroid model of solid tumors. . Complex spheroids include a stromal component modeled by human endothelial cells (HUVEC) and fibroblasts modeled by human mesenchymal stem cells (MSCs). The concentration ranges selected for each drug and investigational agent were based upon clinically achievable concentrations if the clinical Cmax of the agent was known.
Compounds. The drugs and investigational agents: novobiocin (NSC847541), ART-558 (NSC835418), RP-6685 (NSC848927), peposertib (NSC802822), ceralasertib (NSC780249), elimusertib (NSC800525), camonsertib (NSC841442), AZD-1390 (NSC803789), olaparib (NSC753686), talazoparib (NSC767125), rucaparib (NSC756644), sotorasib (NSC818433), MRTX-1133 (NSC836407), SN-38 (NSC673596), topotecan (NSC609699), epotoside (NSC141540), doxorubicin (NSC123127), gemcitabine (NSC613327), 5-fluorouracil (NSC19893), paclitaxel (NSC125973), vemurafenib (NSC761431), MSA-2 (NSC828583), SN-011 (NSC837082), adavosertib (NSC754352), prexasertib (NSC758257), carboplatin (NSC241240) and oxaliplatin (NSC266046), were obtained from the National Cancer Institute (NCI) Developmental Therapeutics Program Chemical Repository (21). The FDA-approved anticancer drug set is available from the Developmental Therapeutics Program at https://dtp.cancer.gov/organization/dscb/obtaining/. […] The stock solutions were prepared in dimethyl sulfoxide (DMSO, Sigma-Aldrich, St. Louis, MO, cat. D2650), except for the platinum compounds which were prepared in saline (Quality Biological, Gaithersburg, MD, cat. 114-055-101), at 800-fold the tested concentration and stored at -70 degrees C prior to their use. All drugs and investigational agents were tested over a range starting from a high concentration at or near the clinical Cmax and decreasing in half-log increments. If the clinical Cmax for an agent had not been determined, the highest concentration tested was 10 microM, except for SN-38, which was tested at a high concentration of 1 microM.
Cell Culture. All cells were maintained in an incubator at 37 degrees C and 5% CO2 with 95% humidity. The PDC lines were cultured according to standard operating procedures established by the NCI PDMR (https://pdmr.cancer.gov). Table 3 of the manuscript, lists the cell lines along with the number of the three cell types plated to form the mct-spheroids and media for tumor cell growth. After thawing, all PDC lines, except 997537-175-T-J1-PDC and 415267-285-R-J2-PDC, were cultured in Matrigel-coated flasks prepared with a working solution of 1X Ham's F-12 nutrient mix, without supplementation (Thermo Fisher Scientific, cat. 11765054), 100 U/mL penicillin-streptomycin (Thermo Fisher Scientific, cat. 15140122), and 2.5% Matrigel (Corning Inc., Corning, NY, cat. 354248) for the first three passages. The two PDC lines 997537-175-T-J1-PDC and 415267-285-R-J2-PDC were cultured on uncoated flasks. The 857933-349-R-J2-PDC line was cultured in 6C/Colon 1B media containing advanced DMEM/F-12 (Thermo Fisher Scientific, cat. 12634028), 10 mM HEPES (Thermo Fisher Scientific, cat. 15630080), 1X GlutaMAX supplement (Thermo Fisher Scientific, cat. 35050061), 0.1 mg/mL primocin (InvivoGen, San Diego, CA, cat. ant-pm-2), 10% defined fetal bovine serum, heat inactivated (HyClone Laboratories Inc., Logan, UT, cat. SH30070.03HI), 50% L-WRN conditioned media (ATCC, cat. CRL-3276), 1.25 mM N-Acetyl-L-cysteine (Sigma-Aldrich, cat. A9165), 10 mM nicotinamide (Sigma-Aldrich, cat. N0636), 1X B-27 supplement (Thermo Fisher Scientific, cat. 17504044), 1X N-2 supplement (Thermo Fisher Scientific, cat. […]
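Also: spheroids exposed to compounds for 7 days.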
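For viability, T/C in this document: 100% = DMSO vehicle-treated spheroids.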

SMILES | viability, T/C (compound 0.0316 µM) | viability, T/C (compound 0.1 µM) | viability, T/C (compound 0.316 µM) | viability, T/C (compound 1 µM) | viability, T/C (compound 3.16 µM) | viability, T/C (compound 10 µM) | IC50 | viability, T/C (compound 0.00316 µM) | viability, T/C (compound 0.01 µM) | viability, T/C (compound 0.00949 µM) | viability, T/C (compound 0.03 µM) | viability, T/C (compound 0.0949 µM) | viability, T/C (compound 0.3 µM) | viability, T/C (compound 0.949 µM) | viability, T/C (compound 3 µM) | viability, T/C (compound 0.000316 µM) | viability, T/C (compound 0.001 µM)
C#Cc1c(F)ccc2cc(O)cc(-c3ncc4c(N5CC6CCC(C5)N6)nc(OCC56CCCN5CC(F)C6)nc4c3F)c12 (centres undefined) | 95.2% and 94.8% and 96% | 84.6% and 98.2% and 122% | 72% and 98.1% and 118% | 88.4% and 89% and 92.8% | 90.2% and 111% and 115% | 53.8% and 102% and 54.2% | > 10000 nM |  |  |  |  |  |  |  |  |  | 
C=CC(=O)N1CCN(c2nc(=O)n(-c3c(C)ccnc3C(C)C)c3nc(-c4c(O)cccc4F)c(F)cc23)C(C)C1 (centres undefined) | 70% and 89.9% and 113% | 93.6% and 105% and 95.7% | 103% and 97.2% and 99.5% | 86.7% and 94.7% and 101% | 88.8% and 90.2% and 102% | 53% and 58.3% and 44.1% | > 10000 nM and 8900 nM |  |  |  |  |  |  |  |  |  | 
C=CCn1c(=O)c2cnc(Nc3ccc(N4CCN(C)CC4)cc3)nc2n1-c1cccc(C(C)(C)O)n1 | 71.1% and 89.5% and 98.8% | 77.6% and 72.5% and 64.8% | 36.1% and 33.8% and 40.5% | 5.95% and 6.09% and 5.44% |  |  | 188 nM and 195 nM and 208 nM | 115% and 101% and 105% | 93.7% and 84% and 89.8% |  |  |  |  |  |  |  | 
CC(=O)O[C@H]1C(=O)[C@@]2(C)[C@H]([C@H](OC(=O)c3ccccc3)[C@]3(O)C[C@H](OC(=O)[C@H](O)[C@@H](NC(=O)c4ccccc4)c4ccccc4)C(C)=C1C3(C)C)[C@]1(OC(C)=O)CO[C@@H]1C[C@@H]2O |  |  |  |  |  |  | < 9.49 nM |  |  | 5.15% and 4.45% and 5.76% | 3.94% and 3.44% and 4.19% | 3.9% and 3.92% and 5.6% | 4.36% and 3.82% and 4.56% | 4.81% and 4.08% and 5.15% | 4.4% and 3.61% and 5.14% |  | 
CC1COCCN1c1cc(-c2ccnn2C)c2ccnc(-c3ccn[nH]3)c2n1 (centres undefined) | 33.8% and 33.3% and 74.6% | 11.3% and 12.5% (2×) | 7.44% and 7.37% and 5.59% | 4.37% and 3.99% and 4.03% | 3.67% and 2.87% and 3.57% | 2.72% and 2.9% and 2.76% | < 31.6 nM and 49.9 nM |  |  |  |  |  |  |  |  |  | 
CC1COCCN1c1cc(C2(O)CC3CCC(C2)O3)c2cnn(-c3ccn[nH]3)c2n1 (centres undefined) | 25.2% and 23.3% and 30.1% | 8.33% and 10.7% and 8.37% | 4.72% and 4.82% and 4.13% | 3.5% and 3.16% and 3.44% | 3.23% and 3.58% and 4.19% | 2.41% and 1.97% and 3.04% | < 31.6 nM |  |  |  |  |  |  |  |  |  | 
CC1COCCN1c1cc(C2(S(C)(=N)=O)CC2)nc(-c2ccnc3[nH]ccc23)n1 (centres undefined) | 110% and 98% and 105% | 96.4% and 67.8% and 94.3% | 65% and 52.9% and 63.1% | 33.9% and 23.4% and 25.4% | 8.76% and 7.96% and 7.97% | 4.29% and 4.9% and 3.97% | 545 nM and 274 nM and 472 nM |  |  |  |  |  |  |  |  |  | 
CCCS(=O)(=O)Nc1ccc(F)c(C(=O)c2c[nH]c3ncc(-c4ccc(Cl)cc4)cc23)c1F | 89.8% and 97% and 86.7% | 87% and 72.4% and 57% | 66.1% and 86.6% and 80.9% | 72.1% and 59.4% and 61% | 55.4% and 56.3% and 59.4% | 7.53% and 9.53% and 19.9% | 3260 nM and 2920 nM and 3800 nM |  |  |  |  |  |  |  |  |  | 
CC[C@@]1(O)C(=O)OCc2c1cc1n(c2=O)Cc2cc3c(CN(C)C)c(O)ccc3nc2-1 | 22.9% and 25.4% and 21.7% | 15.2% and 16.8% and 14.6% |  |  |  |  | 4.5 nM and 7.57 nM and 6.12 nM | 55.4% and 82.4% and 60.1% | 39.6% and 38.4% and 46% |  |  |  |  |  |  | 89.9% and 104% and 89% | 72.3% and 95.7% and 74.1%
CCc1c2c(nc3ccc(O)cc13)-c1cc3c(c(=O)n1C2)COC(=O)[C@]3(O)CC | 13.7% and 12.4% and 11.8% | 7.6% and 9.24% and 7.39% | 6.4% and 5.1% and 5.47% | 3.09% and 2.77% and 3.28% |  |  | < 3.16 nM | 19.4% and 20.1% and 25.3% | 16.5% and 16.4% and 16.3% |  |  |  |  |  |  |  | 
CCc1cc2c(N3CCc4c(cc(Cn5ccnc5)cc4-c4cn(C)nc4C(F)(F)F)C3=O)cc(C)nc2c(OC)n1 | 88.4% and 75.3% and 76.3% | 85.8% and 83.5% and 79.4% | 75.3% and 63.8% and 69.3% | 80.6% and 56.1% and 65.8% | 46.4% and 44.7% and 47.9% | 33.1% and 29.7% and 30.8% | 2800 nM and 1740 nM and 2830 nM |  |  |  |  |  |  |  |  |  | 
CCc1cc2c(N3CCc4c(cc(Cn5ccnc5)cc4-c4cn(C)nc4C(F)(F)F)C3=O)ccnc2c(OC)n1 | 101% and 91.9% and 80.3% | 81% and 77.6% and 71.7% | 88.4% and 77.1% and 66.4% | 65.8% and 68.8% and 64.9% | 54.2% and 59.5% and 53.1% | 34.8% and 38% and 33.4% | 3920 nM and 4920 nM and 3550 nM |  |  |  |  |  |  |  |  |  | 
